From PubChem BioAssay (NCI)
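Dose response: 5 concentrations. Exposure: 48 h. Format: 96-well plates. Endpoint: linear interpolation; highest concentration if not reached. Abbreviation: GI50, concentration required for 50% inhibition of growth. TGI: concentration producing complete growth inhibition.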

Assays:
Assay in all cases: DTP human tumour cell line panel, 48 h
A549 NSCLC = test system: A549 NSCLC
UACC-62 melanoma = test system: UACC-62 melanoma
OVCAR-3 ovarian = test system: OVCAR-3 ovarian
MDA-MB-435 = test system: MDA-MB-435
SW-620 colon = test system: SW-620 colon
BT-549 breast = test system: BT-549 breast
OVCAR-4 ovarian = test system: OVCAR-4 ovarian
SK-MEL-2 melanoma = test system: SK-MEL-2 melanoma
RXF 393 renal = test system: RXF 393 renal
HOP-92 NSCLC = test system: HOP-92 NSCLC

| Structure (SMILES) | GI50 (A549 NSCLC) [µM] | TGI (A549 NSCLC) [µM] | GI50 (UACC-62 melanoma) [µM] | TGI (UACC-62 melanoma) [µM] | GI50 (OVCAR-3 ovarian) [µM] | TGI (OVCAR-3 ovarian) [µM] | GI50 (MDA-MB-435) [µM] | TGI (MDA-MB-435) [µM] | GI50 (SW-620 colon) [µM] | TGI (SW-620 colon) [µM] | GI50 (BT-549 breast) [µM] | TGI (BT-549 breast) [µM] | GI50 (OVCAR-4 ovarian) [µM] | TGI (OVCAR-4 ovarian) [µM] | GI50 (SK-MEL-2 melanoma) [µM] | TGI (SK-MEL-2 melanoma) [µM] | GI50 (RXF 393 renal) [µM] | TGI (RXF 393 renal) [µM] | GI50 (HOP-92 NSCLC) [µM] | TGI (HOP-92 NSCLC) [µM] |
| --- | --- | --- | --- | --- | --- | --- | --- | --- | --- | --- | --- | --- | --- | --- | --- | --- | --- | --- | --- | --- |
| C[Se]C(=O)CC1=C2C=C(F)C=CC2/C(=C\c2ccc(S(C)=O)cc2)C1C (centres undefined) | 0.0257 | 2.66 | 0.41 | 2.3 | 0.0336 | 0.26 | < 0.0117 | 0.362 | 0.273 | 3.25 | 0.0581 | 0.266 | 0.131 | 7.05 | 0.432 | 3.04 | 0.0289 | 0.8 | 0.165 | 0.417 |
| O=[As](O)(O)c1ccc(Cc2ccc([As](=O)(O)O)cc2)cc1 | – | 3.81 | – | 2.62 | – | 2.64 | – | 2.37 | – | 2.18 | – | 3.09 | – | 7.47 | – | 2.87 | – | 1.53 | – | 2.92 |
| Cn1ccnc1C(=O)/C=C/c1ccc(C(=O)Nc2nc3ccccc3[nH]2)cc1 | 10.3 | > 25 | 6.07 | > 25 | 0.894 | 17.2 | 2.87 | 19.8 | 0.808 | > 25 | 1.73 | > 25 | 1.12 | > 25 | > 25 | > 25 | 4.51 | > 25 | 6.28 | > 25 |
| N#Cc1nc(-c2ccccc2)oc1S(=O)(=O)N1CCOCC1 | 27.9 | > 100 | 9.33 | 21.4 | 2.02 | 3.76 | 4.03 | 15.1 | 2.04 | 4.84 | 6.67 | 19.6 | 2.73 | 9.2 | 12.7 | 29.8 | 1.68 | 3.08 | 1.6 | 3.15 |
| CC1OC(O)C(O)C(O)C1O (centres undefined) | – | > 100 | – | > 100 | – | > 100 | – | > 100 | – | > 100 | – | > 100 | – | > 100 | – | > 100 | – | > 100 | – | > 100 |
| C[C@H]1[C@@H](OCC(CO[C@H]2O[C@@H]3O[C@@]4(C)CC[C@H]5[C@H](C)CC[C@@H]([C@H]2C)[C@@]35OO4)=NOCC(=O)O)OC2O[C@@]3(C)CC[C@H]4[C@H](C)CC[C@@H]1[C@@]24OO3 (some centres undefined) | 0.0865 | 15.9 | 0.0336 | 15.5 | < 0.0188 | – | 0.02 | 5.25 | < 0.0137 | 18 | 0.473 | 20.7 | 0.0565 | 18.2 | 0.346 | 14.8 | 0.0821 | 15.8 | < 0.01 | 0.0621 |
| CC#CC(=O)N1CCC[C@H]1c1nc(-c2ccc(C(=O)Nc3ccccn3)cc2)c2c(N)nccn12 | > 79.1 | > 100 | 34.8 | > 100 | 37.2 | > 100 | 44.1 | > 100 | > 100 | > 100 | > 96.5 | > 100 | 58 | > 100 | > 88.4 | > 100 | 61.7 | > 100 | 25.1 | > 100 |
| CC(=O)N1CC(F)(F)c2c(Sc3ncc(N4CCC5(CC4)COC[C@H]5N)nc3N)cccc21 | 23.1 | > 100 | 18 | 36.1 | 16.9 | 61.5 | 31 | > 100 | 16.8 | 54.4 | 10.8 | 53.7 | 10.5 | 96.6 | 24.7 | > 100 | 1.81 | 9.28 | 0.259 | 3.64 |
| C=C(C)[C@H]1CC/C(C)=C/CCC(C)C(=O)CC/C(CO)=C\[C@@H]1O (some centres undefined) | > 100 | > 100 | 67.6 | > 100 | > 100 | > 100 | 49.2 | > 100 | > 100 | > 100 | 88.1 | > 100 | 20.4 | > 100 | > 100 | > 100 | > 100 | > 100 | 61.5 | > 100 |
| COC(=O)CCC1=C(C)c2cc3[n-]c(cc4nc(cc5[n-]c(cc1n2)c(CCC(=O)OC)c5C)C=C4C)cc3C.[Cd+2] | 4.24 | 22.9 | 2 | 5.19 | 1.73 | 3.81 | 2.99 | 19.6 | 4.44 | 18.4 | 0.925 | 2.39 | 2.35 | 7.14 | 5.37 | 19.1 | 2.88 | 10.9 | 16.7 | 40 |
| COc1ccc(C(Nc2ncccn2)c2cc3c(cc2O)OCO3)cc1 (centres undefined) | – | > 100 | – | > 100 | – | 32.7 | – | 50.6 | – | 28.3 | – | 64.3 | – | > 100 | – | 46.9 | – | 36.3 | – | > 100 |
| Oc1ccc2ccccc2c1N=Nc1ccccc1 | – | > 100 | – | > 100 | – | > 100 | – | > 100 | – | > 100 | – | > 100 | – | > 100 | – | > 100 | – | > 100 | – | > 100 |
| COc1cc(C2C(C#N)=C(N)OC3=C2C(=O)c2ccccc2C3=O)cc(OC)c1OC (centres undefined) | 1.32 | 29.6 | 0.396 | 2.02 | 0.493 | 4.18 | 0.239 | 0.523 | 0.413 | 25.9 | 1.43 | 18.5 | 3.45 | 12.5 | 0.998 | 19.2 | 0.517 | 16.3 | 0.861 | 24.9 |
